Assay results: patent US9656990B2, “Cathepsin cysteine protease inhibitors” (Merck Sharp & Dohme Corp., priority 2014, dated 2017)

Assays:
human cathepsin K = human cathepsin K (UniProt P43236, Y175D/V274L, species not given); assay: Cathepsin K Assay; format: biochemical; settings: IP from dose response curve; Z-Leu-Arg-AMC substrate, pH 5.5; read-out: hrbCat K (IP (nM))
human cathepsin F = biological target: T1, human cathepsin F (Homo sapiens, UniProt Q9UBX1); assay: Cathepsin F Assay; format: biochemical; settings: IP from dose response curve; Z-Phe-Arg-AMC substrate, pH 5.5; read-out: hCat F (IP (nM))
T1 sequence (Q9UBX1 271-484): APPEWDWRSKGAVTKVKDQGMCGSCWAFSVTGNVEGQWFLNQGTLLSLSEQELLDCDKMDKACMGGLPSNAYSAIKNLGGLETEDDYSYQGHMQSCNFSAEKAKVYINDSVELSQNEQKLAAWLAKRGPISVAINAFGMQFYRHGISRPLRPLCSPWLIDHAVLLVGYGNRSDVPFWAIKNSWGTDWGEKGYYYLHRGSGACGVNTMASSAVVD
Outline: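 Human cathepsin F (10 nM) preincubated 15 min at room temperature with compounds in 50 mM MES pH 5.5, 2.5 mM EDTA, 2.5 mM DTT, 10% DMSO. Z-Phe-Arg-AMC (8 μM) added; AMC release read by fluorescence (Ex 360/Em 460 nm) over 20 min, inhibition fit to dose-response model.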

Structure (SMILES): C[C@@H](C#N)NC(=O)[C@@H]1CCC(F)(F)C[C@H]1c1nn(-c2ncccc2F)cc1-c1ccc(N2CCS(=N)(=O)CC2)cc1 [Example 45, (1R,2R)-N-((S)-1-cyanoethyl)-4,4-difluoro-2-(1-(3-fluoropyridin-2-yl)-4-(4-(1-imino-1-oxidothiomorpholino)phenyl)-1H-pyrazol-3-yl)cyclohexanecarboxamide]
- IC50 (human cathepsin K): 6.61 nM
- IC50 (human cathepsin F): 5480 nM

Structure (SMILES): N#CC1(NC(=O)[C@@H]2CCCC[C@H]2c2nn(-c3ccc(F)cc3)cc2-c2ccc(N3CCS(=O)(=NCC(F)(F)F)CC3)cc2)CC1 [Example 141, (1R,2R)-N-(1-cyanocyclopropyl)-2-(1-(4-fluorophenyl)-4-(4-(1-oxido-1-((2,2,2-trifluoroethyl)imino)thio-morpholino)phenyl)-1H-pyrazol-3-yl)cyclohexanecarboxamide]
- IC50 (human cathepsin K): 2.1 nM
- IC50 (human cathepsin F): 816 nM

Structure (SMILES): CC(C)[C@@H](C#N)NC(=O)[C@@H]1CC(F)(F)CC[C@H]1c1nn(-c2ccc(F)cc2)c(CO)c1-c1ccc(N2CCS(=O)(=O)CC2)cc1 [Example 63, (1R,2R)-N-((S)-1-cyano-2-methylpropyl)-2-(4-(4-(1,1-dioxidothiomorpholino)phen-yl)-1-(4-fluorophenyl)-5-(hydroxymethyl)-1H-pyrazol-3-yl)-5,5-difluorocyclohexanecarbox-amide]
- IC50 (human cathepsin K): 1.98 nM
- IC50 (human cathepsin F): 98 nM

Structure (SMILES): CC(C)[C@@H](C#N)NC(=O)[C@@H]1CCC(F)(F)C[C@H]1c1nn(-c2ncccc2F)cc1-c1ccc(N2CCS(=N)(=O)CC2)cc1 [Example 35, (1R,2R)-N-((S)-1-cyano-2-methylpropyl)-4,4-difluoro-2-(1-(3-fluoropyridin-2-yl)-4-(4-(1-imino-1-oxidothiomorpholino)phenyl)-1H-pyrazol-3-yl)cyclohexanecarboxamide]
- IC50 (human cathepsin K): 9.69 nM
- IC50 (human cathepsin F): 4890 nM

Structure (SMILES): N#CC1(NC(=O)[C@@H]2CCCC[C@H]2c2nn(-c3ccc(F)cc3)cc2-c2ccc(C(=O)N3CCC(O)CC3)cc2)CC1 [Example 90, (1R,2R)-N-(1-cyanocyclopropyl)-2-(1-(4-fluorophenyl)-4-(4-(4-hydroxypiperidine-1-carbonyl)phenyl)-1H-pyrazol-3-yl)cyclohexanecarboxamide]
- IC50 (human cathepsin K): 8.01 nM
- IC50 (human cathepsin F): 1760 nM

Structure (SMILES): Cc1c(-c2ccc(N3CCS(=O)(=O)CC3)cc2)c([C@@H]2CCCC[C@H]2C(=O)NC2(C#N)CC2)nn1-c1ncccc1F [Example 41, (1R,2R)-N-(1-cyanocyclopropyl)-2-(4-(4-(1,1-dioxidothiomorpholino)phen-yl)-1-(3-fluoropyridin-2-yl)-5-methyl-1H-pyrazol-3-yl)cyclohexanecarboxamide]
- IC50 (human cathepsin K): 8.5 nM
- IC50 (human cathepsin F): 5390 nM

Structure (SMILES): N#CC1(NC(=O)[C@@H]2CCCC[C@H]2c2nn(-c3ccc(Cl)cc3)cc2-c2ccc(N3CCS(=O)(=O)CC3)cc2)CC1 [Example 95, (1R,2R)-2-(1-(4-chlorophenyl)-4-(4-(1,1-dioxidothiomorpholino)phen-yl)-1H-pyrazol-3-yl)-N-(1-cyanocyclopropyl)cyclohex-anecarboxamide]
- IC50 (human cathepsin K): 0.73 nM
- IC50 (human cathepsin F): 402 nM

Structure (SMILES): N#CC1(NC(=O)[C@@H]2CCCC[C@H]2c2nn(-c3ccc(C(O)C(F)(F)F)cc3)cc2-c2ccc(N3CCS(=O)(=O)CC3)cc2)CC1 (mixture of isomers) [Example 113, (1R,2R)-N-(1-cyanocyclopropyl)-2-(4-(4-(1,1-dioxidothiomorpholino)phen-yl)-1-(4-((S and R)-2,2,2-trifluoro-1-hydroxyethyl)phenyl)-1H-pyrazol-3-yl)cyclohexanecarboxamide]
- IC50 (human cathepsin K): 0.88 nM
- IC50 (human cathepsin F): 360 nM

Structure (SMILES): CC(C)[C@@H](C#N)NC(=O)[C@@H]1CCC(F)(F)C[C@H]1c1nn(-c2ncccc2F)cc1-c1ccc(N2CCS(=O)(=O)CC2)cc1 [Example 32, (1R,2R)-N-((S)-1-cyano-2-methylpropyl)-2-(4-(4-(1,1-dioxidothiomorpholino)phen-yl)-1-(3-fluoropyridin-2-yl)-1H-pyrazol-3-yl)-4,4-difluorocyclohexanecarbox-amide]
- IC50 (human cathepsin K): 7.11 nM
- IC50 (human cathepsin F): 2780 nM

Structure (SMILES): CC(C)(O)c1cccc(-n2cc(-c3ccc(N4CCS(=O)(=O)CC4)cc3)c([C@@H]3CCCC[C@H]3C(=O)NC3(C#N)CC3)n2)c1 [Example 96, (1R,2R)-N-(1-cyanocyclopropyl)-2-(4-(4-(1,1-dioxidothiomorpholino)phen-yl)-1-(3-(2-hydroxypropan-2-yl)phenyl)-1H-pyrazol-3-yl)cyclohexanecarboxamide]
- IC50 (human cathepsin K): 1.27 nM
- IC50 (human cathepsin F): 824 nM

Structure (SMILES): N#CC1(NC(=O)[C@@H]2CCCC[C@H]2c2nn(-c3ccc(C(F)(F)F)nc3)cc2-c2ccc(N3CCS(=O)(=O)CC3)cc2)CC1 [Example 166, (1R,2R)-N-(1-cyanocyclopropyl)-2-(4-(4-(1,1-dioxidothiomorpholino)phen-yl)-1-(6-(trifluoromethyl)pyridin-3-yl)-1H-pyrazol-3-yl)cyclohexanecarboxamide]
- IC50 (human cathepsin K): 1.31 nM
- IC50 (human cathepsin F): 428 nM

Structure (SMILES): N#CC1(NC(=O)[C@@H]2CC(F)(F)CC[C@H]2c2nn(-c3ccc(F)cn3)c(C(F)F)c2-c2ccc(N3CCS(=O)(=O)CC3)cc2)CC1 [Example 71, (1R,2R)-N-(1-cyanocyclopropyl)-2-(5-(difluoromethyl)-4-(4-(1,1-dioxidothiomorpholino)phen-yl)-1-(5-fluoropyridin-2-yl)-1H-pyrazol-3-yl)-5,5-difluorocyclohexanecarbox-amide]
- IC50 (human cathepsin K): 2.35 nM
- IC50 (human cathepsin F): 149 nM

Structure (SMILES): Cc1c(-c2ccc(N3CCS(=O)(=O)CC3)cc2)c([C@@H]2CCC(F)(F)C[C@H]2C(=O)NC2(C#N)CC2)nn1-c1ccc(F)cc1 [Example 26, (1R,2R)-N-(1-cyanocyclopropyl)-2-(4-(4-(1,1-dioxidothiomorpholino)phen-yl)-1-(4-fluorophenyl)-5-methyl-1H-pyrazol-3-yl)-5,5-difluorocyclohexanecarbox-amide]
- IC50 (human cathepsin K): 0.67 nM
- IC50 (human cathepsin F): 168 nM

Structure (SMILES): CC(C)OC(=O)N1CC(c2ccc(-c3cn(-c4ccc(F)cc4)nc3[C@@H]3CCCC[C@H]3C(=O)NC3(C#N)CC3)cc2)C1 [Example 6, Isopropyl 3-(4-(3-((1R,2R)-2-((1-cyanocyclopropyl)carbamoyl)cyclohexyl)-1-(4-fluorophenyl)-1H-pyrazol-4-yl)phenyl)azetidine-1-carboxylate]
- IC50 (human cathepsin K): 0.53 nM
- IC50 (human cathepsin F): 49 nM

Structure (SMILES): N#CC1(NC(=O)[C@@H]2CCCC[C@H]2c2nn(-c3ccc(Cl)cn3)cc2-c2ccc(N3CCS(=O)(=O)CC3)cc2)CC1 [Example 146, (1R,2R)-2-(1-(5-chloropyridin-2-yl)-4-(4-(1,1-dioxidothiomorpholino)phen-yl)-1H-pyrazol-3-yl)-N-(1-cyanocyclopropyl)cyclohex-anecarboxamide]
- IC50 (human cathepsin K): 1.15 nM
- IC50 (human cathepsin F): 272 nM

Structure (SMILES): N#CC1(NC(=O)[C@@H]2C[C@@H](F)CC[C@H]2c2nn(-c3ccc(F)cc3)cc2-c2ccc(N3CCS(=O)(=O)CC3)cc2)CC1 [Example 112, (1R,2R,5S)-N-(1-cyanocyclopropyl)-2-(4-(4-(1,1-dioxidothiomorpholino)phen-yl)-1-(4-fluorophenyl)-1H-pyrazol-3-yl)-5-fluorocyclohexanecarboxamide]
- IC50 (human cathepsin K): 1.33 nM
- IC50 (human cathepsin F): 922 nM

Structure (SMILES): CN=S1(=O)CCN(c2ccc(-c3c([C@@H]4CCCC[C@H]4C(=O)N[C@@H](C)C#N)nn(-c4ncccc4F)c3C)cc2)CC1 [Example 47, (1R,2R)-N-((S)-1-cyanoethyl)-2-(1-(3-fluoropyridin-2-yl)-5-methyl-4-(4-(1-(methylimino)-1-oxidothiomorpholino)phenyl)-1H-pyrazol-3-yl)cyclohexanecarboxamide]
- IC50 (human cathepsin K): 5.48 nM
- IC50 (human cathepsin F): 3240 nM

Structure (SMILES): Cc1c(-c2ccc(N3CCS(=O)(=O)CC3)cc2)c([C@@H]2CCCC[C@H]2C(=O)N[C@@H](C)C#N)nn1-c1ncccc1F [Example 42, (1R,2R)-N-((S)-1-cyanoethyl)-2-(4-(4-(1,1-dioxidothiomorpholino)phen-yl)-1-(3-fluoropyridin-2-yl)-5-methyl-1H-pyrazol-3-yl)cyclohexanecarboxamide]
- IC50 (human cathepsin K): 3.62 nM
- IC50 (human cathepsin F): 1990 nM

Structure (SMILES): N#CCNC(=O)C1CC(F)(F)CCC1c1nn(-c2ccc(F)cc2)cc1-c1ccc(N2CCS(=O)(=O)CC2)cc1 (racemic) [Example 79, (1R,2R and 1S,2S)-N-(cyanomethyl)-2-(4-(4-(1,1-dioxidothiomorpholino)phen-yl)-1-(4-fluorophenyl)-1H-pyrazol-3-yl)-5,5-difluorocyclohexanecarbox-amide]
- IC50 (human cathepsin K): 0.81 nM
- IC50 (human cathepsin F): 17 nM

Structure (SMILES): CN=S1(=O)CCN(c2ccc(-c3cn(-c4ccc(F)cc4)nc3[C@@H]3CC[C@H](F)C[C@H]3C(=O)NC3(C#N)CC3)cc2)CC1 [Example 15, (1R,2R,5S)-N-(1-cyanocyclopropyl)-5-fluoro-2-(1-(4-fluorophenyl)-4-(4-(1-(methylimino)-1-oxidothiomorpholino)phenyl)-1H-pyrazol-3-yl)cyclohexanecarboxamide]
- IC50 (human cathepsin K): 3 nM
- IC50 (human cathepsin F): 1780 nM

Structure (SMILES): N#CC1(NC(=O)[C@@H]2CC(F)(F)CC[C@H]2c2nn(-c3ccc(F)cn3)c(CO)c2-c2ccc(N3CCS(=O)(=O)CC3)cc2)CC1 [Example 70, (1R,2R)-N-(1-cyanocyclopropyl)-2-(4-(4-(1,1-dioxidothiomorpholino)phen-yl)-1-(5-fluoropyridin-2-yl)-5-(hydroxymethyl)-1H-pyrazol-3-yl)-5,5-difluorocyclohexanecarbox-amide]
- IC50 (human cathepsin K): 1.9 nM
- IC50 (human cathepsin F): 185 nM
